From ChEMBL document CHEMBL4433226, “Unnatural Tripeptides as Potent Positive Allosteric Modulators of T1R2/T1R3” (ACS Med Chem Lett, 2019) come the findings set out here.

Assay [1] has as its target T1, T1R2/T1R3 (Homo sapiens) (UniProt Q8TE23+Q7RTX0). Nature of the assay: Positive allosteric modulator activity at human T1R2/T1R3 expressed in PEAKrapid cells assessed as potentiation of sucrose-induced intracellular calcium influx by measuring sucrose EC50 at 50 uM measured for 120 secs by fluorescence based assay relative to compound-2. The class given is functional, cell-based. (A change in cytosolic calcium serves as a functional read-out for many receptors and channels.)

Assay [2] concerns the target T1, T1R2/T1R3 (Homo sapiens). As to the kind of experiment: Agonist activity at human T1R2/T1R3 expressed in PEAKrapid cells assessed as effect on intracellular calcium influx measured for 120 secs by fluorescence based assay. The format is functional, cell-based.
For assay [3], the target named is T1, T1R2/T1R3 (Homo sapiens). Nature of the assay: Positive allosteric modulator activity at human T1R2/T1R3 expressed in PEAKrapid cells assessed as potentiation of sucrose-induced intracellular calcium influx by measuring sucrose EC50 at 30 uM measured for 120 secs by fluorescence based assay relative to FEMA4774. The format is functional, cell-based.
Another assay is filed under the species Homo sapiens. As to the kind of experiment: Sweetness enhancing activity in trained human panelists assessed as rating of perceived sweetness intensity of depicted sucrose solutions at 10 ppm co-treated with 5% sucrose relative to original level. The class given is functional.

Active and inactive are the calls of the source. The calls are words filed in the database; no cut-off is given here.

Regarding `Nc1c(C(=O)O)cncc1-c1cccs1`, the Efficacy at T1R2/T1R3 (Homo sapiens) [1] worked out at 85%. Besides, at T1R2/T1R3 (Homo sapiens) [2], the outcome was inactive.

Consider `Cc1nc2ccccc2c(N)c1C(=O)O`, for which the outcome on T1R2/T1R3 (Homo sapiens) [2] was inactive.

As to `CC(C)CC(=O)NCc1ccc(-c2cncc(C(=O)O)c2N)o1`, on T1R2/T1R3 (Homo sapiens) [2], the result was inactive. Moreover, the Efficacy at T1R2/T1R3 (Homo sapiens) [3] came to 42%.

For `Cc1nc2cccc(OCC(C)(C)C(=O)NC(C)C)c2c(N)c1C(=O)O`, the “fold change (FC)” value in the assay listed under Homo sapiens is reported as 1.97. The result on T1R2/T1R3 (Homo sapiens) [2] was inactive.

As to `Cl.Cl.Nc1c(NC(=O)CCCCNC(=O)[C@@H](N)C2CCCCC2)cncc1C(=O)O`, the “fold change (FC)” value in the assay listed under Homo sapiens came to 1.96. Moreover, at T1R2/T1R3 (Homo sapiens) [2], the result was inactive. The Efficacy on T1R2/T1R3 (Homo sapiens) [3] worked out at 45%.

Turning to `CC(C)CNC(=O)C(=O)NCc1ccc(-c2cncc(C(=O)O)c2N)o1`, the outcome on T1R2/T1R3 (Homo sapiens) [2] was inactive. Further, the Efficacy on T1R2/T1R3 (Homo sapiens) [3] was 43%.

For `CC(C)C(=O)NCc1ccc(-c2cncc(C(=O)O)c2N)o1`, the result at T1R2/T1R3 (Homo sapiens) [2] was inactive. The Efficacy at T1R2/T1R3 (Homo sapiens) [3] came out at 37%.

`CC[C@H](C)[C@H](N)C(=O)NCc1ccc(-c2cncc(C(=O)O)c2N)o1`: the result on T1R2/T1R3 (Homo sapiens) [2] was inactive. For the same compound, the Efficacy on T1R2/T1R3 (Homo sapiens) [3] was 55%.

Consider `Nc1c(NC(=O)CC[C@H](Cc2ccccc2)NC(=O)[C@@H](N)C2CCCCC2)cncc1C(=O)O`, for which, on T1R2/T1R3 (Homo sapiens) [2], the result was inactive. Besides, on T1R2/T1R3 (Homo sapiens) [3], the Efficacy came to 55%.

For the compound `Cl.Cl.Nc1c(C(=O)O)cncc1-c1ccc(CNC(=O)[C@@H](N)C2CCCCC2)o1`, in the assay filed under Homo sapiens, the “fold change (FC)” value was found to be 1.77. In addition, the result on T1R2/T1R3 (Homo sapiens) [2] was inactive. Moreover, at T1R2/T1R3 (Homo sapiens) [3], the Efficacy was found to be 72%.

In the case of `CC(C)C[C@H](N)C(=O)NCc1ccc(-c2cncc(C(=O)O)c2N)o1`, the result at T1R2/T1R3 (Homo sapiens) [2] was inactive. Besides, the Efficacy at T1R2/T1R3 (Homo sapiens) [3] worked out at 61%.

As for `CC(C)CNC(=O)NCc1ccc(-c2cncc(C(=O)O)c2N)o1`, the outcome on T1R2/T1R3 (Homo sapiens) [2] was inactive. In addition, the Efficacy at T1R2/T1R3 (Homo sapiens) [3] was 48%.

On to `CC(C)[C@H](N)C(=O)NCc1ccc(-c2cncc(C(=O)O)c2N)o1`, for which the outcome at T1R2/T1R3 (Homo sapiens) [2] was inactive. Also, the Efficacy at T1R2/T1R3 (Homo sapiens) [3] was 52%.

Take `Nc1c(NC(=O)CCCCCCNC(=O)[C@@H](N)C2CCCCC2)cncc1C(=O)O`: the outcome on T1R2/T1R3 (Homo sapiens) [2] was inactive. Further, on T1R2/T1R3 (Homo sapiens) [3], the Efficacy amounted to 36%.

Take `CC(C)[C@@H](CC(=O)Nc1cncc(C(=O)O)c1N)NC(=O)[C@@H](N)C1CCCCC1`: the result on T1R2/T1R3 (Homo sapiens) [2] was inactive. On T1R2/T1R3 (Homo sapiens) [3], the Efficacy is 35%.

As for `CC[C@H](C)[C@@H](CCC(=O)Nc1cncc(C(=O)O)c1N)NC(=O)[C@@H](N)C1CCCCC1`, the result on T1R2/T1R3 (Homo sapiens) [2] was inactive. For the same compound, the Efficacy on T1R2/T1R3 (Homo sapiens) [3] is 51%.

Take `C[C@@H](CC(=O)Nc1cncc(C(=O)O)c1N)NC(=O)[C@@H](N)C1CCCCC1`: the outcome on T1R2/T1R3 (Homo sapiens) [2] was inactive. On T1R2/T1R3 (Homo sapiens) [3], the Efficacy came out at 44%.

For the compound `CC(C)[C@@H](CCC(=O)Nc1cncc(C(=O)O)c1N)NC(=O)[C@@H](N)C1CCCCC1`, the outcome on T1R2/T1R3 (Homo sapiens) [2] was inactive. In addition, on T1R2/T1R3 (Homo sapiens) [3], the Efficacy was 45%.

With `CC(C)C[C@@H](CC(=O)Nc1cncc(C(=O)O)c1N)NC(=O)[C@@H](N)C1CCCCC1`, on T1R2/T1R3 (Homo sapiens) [2], the result was inactive. Besides, the Efficacy on T1R2/T1R3 (Homo sapiens) [3] was 38%.

On to `CC(=O)NCc1ccc(-c2cncc(C(=O)O)c2N)o1`, for which the result on T1R2/T1R3 (Homo sapiens) [2] was inactive. Also, on T1R2/T1R3 (Homo sapiens) [3], the Efficacy was determined as 33%.

As for `Nc1c(C(=O)O)cncc1-c1ccccc1`, the Efficacy on T1R2/T1R3 (Homo sapiens) [1] came out at 80%. In addition, the result at T1R2/T1R3 (Homo sapiens) [2] was inactive.

Consider `Nc1c(NC(=O)CCCNC(=O)[C@@H](N)C2CCCCC2)cncc1C(=O)O`, for which the outcome at T1R2/T1R3 (Homo sapiens) [2] was inactive. Also, the Efficacy at T1R2/T1R3 (Homo sapiens) [3] was 37%.

For `CC(C)(CC(=O)Nc1cncc(C(=O)O)c1N)NC(=O)[C@@H](N)C1CCCCC1.Cl.Cl`, the “fold change (FC)” value in the assay listed under Homo sapiens amounted to 2.05. Moreover, on T1R2/T1R3 (Homo sapiens) [2], the result was inactive. Further, the Efficacy at T1R2/T1R3 (Homo sapiens) [3] amounted to 67%.

As for `Nc1c(C(=O)O)cncc1-c1ccco1`, at T1R2/T1R3 (Homo sapiens) [1], the Efficacy was 83%. For the same compound, on T1R2/T1R3 (Homo sapiens) [2], the outcome was inactive.

For the compound `CC(C)(C)OC(=O)NCc1ccc(-c2cncc(C(=O)O)c2N)o1`, the result on T1R2/T1R3 (Homo sapiens) [2] was inactive. At T1R2/T1R3 (Homo sapiens) [3], the Efficacy is 41%.
